Laboratory results published in US20230051589A1, “COMPOUNDS AND COMPOSITIONS FOR TREATING CONDITIONS ASSOCIATED WITH NLRP ACTIVITY” (Novartis AG, priority 2018, published 2023).

tested on: IL-1β production in PMA-differentiated THP-1 cells; test: IL-1β production in PMA-differentiated THP-1 cells stimulated with gramicidin (hTHP-1 assay, 2% fetal bovine serum; Procedures 1-3); type: cell-based, human; conditions: Homo sapiens, THP-1, hTHP-1 assay containing 2% fetal bovine serum, Table B2, class symbols; read-out: IC50
Outline: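 PMA-primed THP-1 cells (20 ng/ml PMA, 16-18 h) in RPMI with 2% FBS were pre-incubated with compounds for 1 h, from 100 μM downward in 3-fold steps (0.37% DMSO final), then stimulated with 5 μM gramicidin for 2 h. IL-1β in the supernatant was quantified by HTRF.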

First: CC(C)(O)c1cnc([S@](N)(=O)=NC(=O)Nc2c3c(cc4c2C(O)CC4)CCC3)s1 (stereo partly drawn) [Example 510, (R)-N′-((3-hydroxy-1,2,3,5,6,7-hexahydro-s-indacen-4-yl)carbamoyl)-5-(2-hydroxypropan-2-yl)thiazole-2-sulfonimidamide]
Second: CC(C)(O)c1cnc([S@](N)(=O)=NC(=O)Nc2c3c(cc4c2CCC4O)CCC3)s1 (stereo partly drawn) [Example 512, (R)-N′-((1-hydroxy-1,2,3,5,6,7-hexahydro-s-indacen-4-yl)carbamoyl)-5-(2-hydroxypropan-2-yl)thiazole-2-sulfonimidamide]
The IC50 of the first is lower: 200 to 1000 nM for the first, 1000 to 5000 nM for the second. The first is the more potent here.

First: CCCc1c2c(c(NC(=O)N=S(N)(=O)c3cc(C(C)(C)O)n(-c4ccccc4)n3)c3c1CCC3)CCC2 (stereo not shown) [Example 513, 5-(2-hydroxypropan-2-yl)-1-phenyl-N′-((8-propyl-1,2,3,5,6,7-hexahydro-s-indacen-4-yl)carbamoyl)-1H-pyrazole-3-sulfonimidamide]
Second: COc1ccc(Cn2nc(S(N)(=O)=NC(=O)Nc3c4c(cc5c3CCC5)CCC4)cc2C(C)(C)O)cc1 (stereo not shown) [Example 682, N′-((1,2,3,5,6,7-hexahydro-s-indacen-4-yl)carbamoyl)-5-(2-hydroxypropan-2-yl)-1-(4-methoxybenzyl)-1H-pyrazole-3-sulfonimidamide]
The IC50 of the first is higher: 5000 to 30000 nM for the first, 200 to 1000 nM for the second.

First: CC(C)(O)c1ncc([S@](N)(=O)=NC(=O)Nc2cc(CCCl)cc3c2CCC3)s1 [Example 514, (R)-N′-((6-(2-chloroethyl)-2,3-dihydro-1H-inden-4-yl)carbamoyl)-2-(2-hydroxypropan-2-yl)thiazole-5-sulfonimidamide]
Second: C[C@@](O)(CN)c1ncc(S(N)(=O)=NC(=O)Nc2c3c(cc4c2CCC4)CCC3)s1 (stereo partly drawn) [Example 673, 2-((R)-1-amino-2-hydroxypropan-2-yl)-N′-((1,2,3,5,6,7-hexahydro-s-indacen-4-yl)carbamoyl)thiazole-5-sulfonimidamide]
The IC50 of the first is higher: 1000 to 5000 nM for the first, 40 to 200 nM for the second. The second is the more potent here.

Compared with CNCc1cc(F)c(S(N)(=O)=NC(=O)Nc2c3c(cc4c2CC4)CCC3)s1 (stereo not shown) [Example 669, 3-Fluoro-5-((methylamino)methyl)-N′-((2,4,5,6-tetrahydro-1H-cyclobuta[f]inden-3-yl)carbamoyl)thiophene-2-sulfonimidamide], CCNCc1ccc([S@](N)(=O)=NC(=O)Nc2c3c(cc4c2CCC4)CCC3)cc1 [Example 700, (R)-4-((ethylamino)methyl)-N′-((1,2,3,5,6,7-hexahydro-s-indacen-4-yl)carbamoyl)-benzenesulfonimidamide] is higher in IC50: 40 to 200 nM for the first, 1000 to 5000 nM for the second.

C[C@]1(c2ncc(S(N)(=O)=NC(=O)Nc3c4c(cc5c3CCC5)CCC4)s2)CNC(=O)O1 (stereo partly drawn) [Example 674, N′-((1,2,3,5,6,7-hexahydro-s-indacen-4-yl)carbamoyl)-2-((R)-5-methyl-2-oxooxazolidin-5-yl)thiazole-5-sulfonimidamide] and CC(=O)NC[C@@](C)(O)c1ncc(S(N)(=O)=NC(=O)Nc2c3c(cc4c2CCC4)CCC3)s1 (stereo partly drawn) [Example 675, N-((2R)-2-(5-(N′-((1,2,3,5,6,7-hexahydro-s-indacen-4-yl)carbamoyl)sulfamidimidoyl)thiazol-2-yl)-2-hydroxypropyl)acetamide] fall in the same range of IC50: 40 to 200 nM for the first, 40 to 200 nM for the second.

CC(C)(C)OC(=O)NC[C@@](C)(O)c1ncc(S(N)(=O)=NC(=O)Nc2c3c(cc4c2CCC4)CCC3)s1 (stereo partly drawn) [Example 676, Tert-butyl ((2R)-2-(5-(N′-((1,2,3,5,6,7-hexahydro-s-indacen-4-yl)carbamoyl)sulfamidimidoyl)thiazol-2-yl)-2-hydroxypropyl)carbamate] and C[C@@](O)(COCCO)c1ncc(S(N)(=O)=NC(=O)Nc2c3c(cc4c2CCC4)CCC3)s1 (stereo partly drawn) [Example 677, N′-((1,2,3,5,6,7-hexahydro-s-indacen-4-yl)carbamoyl)-2-((R)-2-hydroxy-1-(2-hydroxyethoxy)propan-2-yl)thiazole-5-sulfonimidamide] fall in the same range of IC50: 40 to 200 nM for the first, 40 to 200 nM for the second.

First: N#Cc1c2c(c(NC(=O)N=S(N)(=O)c3cnc(C(O)(CO)CO)s3)c3c1CCC3)CCC2 (stereo not shown) [Example 678, N′-((8-cyano-1,2,3,5,6,7-hexahydro-s-indacen-4-yl)carbamoyl)-2-(1,2,3-trihydroxypropan-2-yl)thiazole-5-sulfonimidamide]
Second: COCc1nc(C(C)(C)O)sc1S(N)(=O)=NC(=O)Nc1c2c(c(C#N)c3c1CCC3)CCC2 (stereo not shown) [Example 679, N′-((8-cyano-1,2,3,5,6,7-hexahydro-s-indacen-4-yl)carbamoyl)-2-(2-hydroxypropan-2-yl)-4-(methoxymethyl)thiazole-5-sulfonimidamide]
The IC50 of the first is higher: 5000 to 30000 nM for the first, 200 to 1000 nM for the second.

First: CC(C)(O)c1ccnc(S(N)(=O)=NC(=O)Nc2c3c(c(C#N)c4c2CCC4)CCC3)c1 (stereo not shown) [Example 681, N′-((8-cyano-1,2,3,5,6,7-hexahydro-s-indacen-4-yl)carbamoyl)-4-(2-hydroxypropan-2-yl)pyridine-2-sulfonimidamide]
Second: COCCOC[C@@](C)(O)c1ncc(S(N)(=O)=NC(=O)Nc2c3c(cc4c2CCC4)CCC3)s1 (stereo partly drawn) [Example 684, N′-((1,2,3,5,6,7-hexahydro-s-indacen-4-yl)carbamoyl)-2-((R)-2-hydroxy-1-(2-methoxyethoxy)propan-2-yl)thiazole-5-sulfonimidamide]
The IC50 of the first is higher: 200 to 1000 nM for the first, 40 to 200 nM for the second.

Compared with C[C@@](O)(COCCOCc1ccccc1)c1ncc(S(N)(=O)=NC(=O)Nc2c3c(cc4c2CCC4)CCC3)s1 (stereo partly drawn) [Example 683, 2-((R)-1-(2-(benzyloxy)ethoxy)-2-hydroxypropan-2-yl)-N′-((1,2,3,5,6,7-hexahydro-s-indacen-4-yl)carbamoyl)thiazole-5-sulfonimidamide], COc1ccc([C@@H](C)NS(=O)(=NC(=O)Nc2c3c(cc4c2CCC4)CCC3)c2cnc(C(C)(C)O)s2)cc1 (stereo partly drawn) [Example 712, N′-((1,2,3,5,6,7-hexahydro-s-indacen-4-yl)carbamoyl)-2-(2-hydroxypropan-2-yl)-N-((R)-1-(4-methoxyphenyl)ethyl)thiazole-5-sulfonimidamide] is higher in IC50: 200 to 1000 nM for the first, 5000 to 30000 nM for the second.

C=CCNCc1ccc([S@](N)(=O)=NC(=O)Nc2c3c(cc4c2CCC4)CCC3)cc1 [Example 699, (R)-4-((allylamino)methyl)-N′-((1,2,3,5,6,7-hexahydro-s-indacen-4-yl)carbamoyl)-benzenesulfonimidamide] and N[S@@](=O)(=NC(=O)Nc1c2c(cc3c1CCC3)CCC2)c1ccc(CNCC(F)F)cc1 [Example 708, (R)-4-(((2,2-difluoroethyl)amino)methyl)-N′-((1,2,3,5,6,7-hexahydro-s-indacen-4-yl)-carbamoyl)benzenesulfonimidamide] fall in the same range of IC50: 1000 to 5000 nM for the first, 1000 to 5000 nM for the second.

COCCNCc1ccc([S@](N)(=O)=NC(=O)Nc2c3c(cc4c2CCC4)CCC3)cc1 [Example 701, (R)-N′-((1,2,3,5,6,7-hexahydro-s-indacen-4-yl)carbamoyl)-4-(((2-methoxyethyl)amino)-methyl)benzenesulfonimidamide] and CC(C)NCc1ccc([S@](N)(=O)=NC(=O)Nc2c3c(cc4c2CCC4)CCC3)cc1 [Example 706, (R)-N′-((1,2,3,5,6,7-hexahydro-s-indacen-4-yl)carbamoyl)-4-((isopropylamino)methyl)-benzenesulfonimidamide] fall in the same range of IC50: 1000 to 5000 nM for the first, 1000 to 5000 nM for the second.

CCC(C)NCc1ccc([S@](N)(=O)=NC(=O)Nc2c3c(cc4c2CCC4)CCC3)cc1 (stereo partly drawn) [Example 702, (R)-4-((sec-butylamino)methyl)-N′-((1,2,3,5,6,7-hexahydro-s-indacen-4-yl)carbamoyl)-benzenesulfonimidamide] and N[S@@](=O)(=NC(=O)Nc1c2c(cc3c1CCC3)CCC2)c1ccc(CNC2CCC2)cc1 [Example 705, (R)-4-((cyclobutylamino)methyl)-N′-((1,2,3,5,6,7-hexahydro-s-indacen-4-yl)carbamoyl)-benzenesulfonimidamide] fall in the same range of IC50: 1000 to 5000 nM for the first, 1000 to 5000 nM for the second.

N[S@@](=O)(=NC(=O)Nc1c2c(cc3c1CCC3)CCC2)c1ccc(CNC2CCOCC2)cc1 [Example 703, (R)-N′-((1,2,3,5,6,7-hexahydro-s-indacen-4-yl)carbamoyl)-4-(((tetrahydro-2H-pyran-4-yl)-amino)methyl)benzenesulfonimidamide] and N[S@@](=O)(=NC(=O)Nc1c2c(cc3c1CCC3)CCC2)c1ccc(CNC2CCCCCC2)cc1 [Example 704, (R)-4-((cycloheptylamino)methyl)-N′-((1,2,3,5,6,7-hexahydro-s-indacen-4-yl)-carbamoyl)-benzenesulfonimidamide] fall in the same range of IC50: 1000 to 5000 nM for the first, 1000 to 5000 nM for the second.

First: CN1CCN(Cc2ccc([S@](N)(=O)=NC(=O)Nc3c4c(cc5c3CCC5)CCC4)cc2)CC1 [Example 707, (R)-N′-((1,2,3,5,6,7-hexahydro-s-indacen-4-yl)carbamoyl)-4-((4-methylpiperazin-1-yl)-methyl)benzenesulfonimidamide]
Second: CN(Cc1ccc([S@](N)(=O)=NC(=O)Nc2c3c(cc4c2CCC4)CCC3)cc1)C1CCC1 [Example 709, (R)-4-((cyclobutyl(methyl)amino)methyl)-N′-((1,2,3,5,6,7-hexahydro-s-indacen-4-yl)-carbamoyl)benzenesulfonimidamide]
The IC50 of the first is higher: 1000 to 5000 nM for the first, 200 to 1000 nM for the second. The second is the more potent here.

same assay, conditions: Homo sapiens, THP-1, hTHP-1 assay containing 2% fetal bovine serum, Table B2, given as bound; read-out: IC50

In the case of CC(C)(O)c1cnc([S@@](N)(=O)=NC(=O)Nc2c3c(cc4c2C(O)CC4)CCC3)s1 (stereo partly drawn) [Example 511, (S)-N′-((3-hydroxy-1,2,3,5,6,7-hexahydro-s-indacen-4-yl)carbamoyl)-5-(2-hydroxypropan-2-yl)thiazole-2-sulfonimidamide], the IC50 is reported as > 30000 nM.

same assay, conditions: hTHP-1 assay containing 2% fetal bovine serum, Table B2, class symbols; read-out: IC50

First: CC(O)(CO)c1cc(F)c(S(N)(=O)=NC(=O)Nc2c3c(c(C#N)c4c2CCC4)CCC3)s1 [Example 631, (R,S) and (S,S)-N′-((8-cyano-1,2,3,5,6,7-hexahydro-s-indacen-4-yl)carbamoyl)-5-(1,2-dihydroxypropan-2-yl)-3-fluorothiophene-2-sulfonimidamide]
Second: CC(C)(O)c1cnc(S(N)(=O)=NC(=O)Nc2c3c(cc4c2CCC4=O)CCC3)s1 (stereo not shown) [Example 680, 5-(2-Hydroxypropan-2-yl)-N′-((1-oxo-1,2,3,5,6,7-hexahydro-s-indacen-4-yl)carbamoyl)thiazole-2-sulfonimidamide]
The IC50 of the first is higher: 1000 to 5000 nM for the first, 8 to 40 nM for the second.
